In US20140130191A1, “METHODS FOR TREATING IMMUNE-MEDIATED DISEASES OF THE NERVOUS SYSTEM ADMINISTERING A COMPOUND COMPRISING AGENTS THAT INHIBIT PROKINETICIN RECEPTORS ACTIVITY” (FONDAZIONE I.R.C.C.S. ISTITUTO NEUROLOGICO "CARLO BESTA", priority 2011, published 2014):

Columns and labels:
[1] = system: relapsing-remitting PLP139-151 induced EAE in SJL mice; assay: Relapsing-remitting EAE in SJL mice, preventive treatment regimen; format: in vivo; conditions: for Incidence (%): PLP139-151 in CFA; for severity of the disease (in words): preventive treatment, 500 μg/kg
Excerpt: (§1) The relapsing-remitting EAE model was obtained in female SJL mice by immunization with myelin proteolipid protein fragment 139-151 (PLP139-151) in complete Freund's adjuvant (CFA) [Pedotti et al., Nat Immunol 2001]. The chronic EAE model was obtained in C57BL/6 mice as mentioned before.
(§2) We used non-peptide prokineticin receptors antagonist drugs called PC1 and PC7 (whose chemical structure is shown in FIG. 1) to chronically treat the mice starting both from the time of induction of EAE (day 0; preventive treatment) and from the onset of the first symptoms of EAE (day 10-12, approximately; therapeutic treatment).
(§3) With reference to FIG. 4, the non-peptide prokineticin receptor 1 and 2 antagonist PCI was administered intraperitoneally to 8-12 week old female SJL mice in which EAE had been induced by immunization with PLP139-151 (100 μg/mouse) in CFA. The PC1 was given at a dose of 500 μg/kg (n=10). As a control, an equal amount of saline solution was injected (vehicle) (n=10). The treatments began at the time of induction of EAE (preventive treatment), or, more specifically, 4 hours after the induction of EAE. Ten mice per group were used. The graph represents the average daily disease score±standard error of the mean (SEM). A scale of 0 to 5 was used to attribute the score, where 0 is the absence of symptoms and 5 is death (as described in Pedotti et al, Nat Immunol 2001). *p<0.05 for two-tailed unpaired Student's t test vs Control. The results are representative of three consecutive experiments that gave similar results.
as §3, with “6,” for “4,”, “PC-7” for “PCI”, “PC7” for “PC1”, “μg /kg” for “μg/kg”, “(SEM).” for “(SEM). A scale of 0 to 5 was used to attribute the score, where 0 is the absence of symptoms and 5 is death (as described in Pedotti et al, Nat Immunol 2001). *p<0.05 for two-tailed unpaired Student's t test vs Control.”

[2] = system: splenocytes; assay: T-cell response in splenocytes of mice with relapsing-remitting EAE, restimulated in vitro with PLP139-151; format: cell-based
Protocol: With reference to FIG. 5, 8-12 week old female SJL mice in which EAE had been induced by immunization with PLP139-151 in CFA were preventively treated (day 0) with PC1 at a dose of 500 μg/kg per day, or with vehicle as described in FIG. 4. The splenocytes were obtained 35 days after immunization with PLP139-151, and were restimulated in vitro with the antigen PLP139-151 at different concentrations or with the medium.
To assay proliferation, after 48 hours of incubation with 5% Co2 at 37° C., the cultures were loaded for 18 hours with 0.5 μCi 3H-thymidine per well. To assay cytokine production, splenocytes were restimulated in vitro with the antigen PLP139-151 at different concentrations or with the medium. The concentration of Interferon-gamma (IFN-gamma), tumour necrosis factor (TNF), Interleukine-6 (IL-6), IL-17, IL-4, and IL-10 was determined in duplicate using the ELISA technique (ELISA DuoSet, Pharmingen, CA). The results are representative of two consecutive experiments that gave similar results.

[3] = system: relapsing-remitting PLP139-151 induced EAE in SJL mice; assay: Relapsing-remitting EAE in SJL mice, therapeutic treatment regimen; format: in vivo
Excerpt: as §1, §2
With reference to FIG. 7, the non-peptide prokineticin receptor 1 and 2 antagonist PC-7 was administered intraperitoneally to 8-12 week old female SJL mice in which EAE had been induced by immunization with PLP139-151 (100 μg/mouse) in CFA. The PC-7 was given at a dose of 500 μg/kg (n=10). As a control, an equal amount of saline solution was injected (control) (n=10). The treatments began on the appearance of the first symptoms of the disease (Day 11). Ten mice per group were used. The graph represents the average daily disease score±standard error of the mean (SEM). The results are representative of three consecutive experiments that gave similar results.

[4] = system: chronic MOG35-55 induced EAE in C57B1/6 mice; assay: Chronic EAE in C57B1/6 mice, preventive treatment regimen; format: in vivo
Excerpt: (§4) In the study conducted we verified the expression of PK-2 and its receptors PK-R1 and PK-R2 in the experimental model of chronic EAE, an experimental model of MS. The chronic EAE model was obtained in C57B1/6 mice by immunization with myelin oligodendrocyte glycoprotein peptide fragment 35-55 (MOG35-55) and PTX (Pertussis toxin) [Pedotti et al., PNAS 2003]. During chronic EAE, we observed an increase of mRNA expression of PK-2 by lymph node cells and purified CD4+ T cells in C57B1/6 mice during the disease. This increase of mRNA expression started before the onset of the disease and is less significant after its onset (FIG. 2). We observed also an important increase of the levels of the protein PK-2 in the serum of mice with MOG35-55 induced EAE (FIG. 3). This increase of PK-2 was accompanied by a dramatic reduction of PK-R2 expression in lymph node cells and CD4+T cells. […] Thus, the couple PK-2/PK-R1 seemed to play an important role during EAE, the experimental model of MS.
as §2
With reference to FIG. 9, the non-peptide prokineticin receptor 1 and 2 antagonist PC7 was administered intraperitoneally to 8-12 week old female C57B1/6 mice in which chronic EAE had been induced by immunization with MOG35-55 (100 μg/mouse) and PTX (400 ng/mouse). The PC-7 was given at a dose of 500 μg/kg (n=10). As a control, an equal amount of saline solution was injected (vehicle) (n=10). The treatments began at the time of induction of EAE (preventive treatment), or, more specifically, 4 hours after the induction of EAE. Ten mice per group were used. The graph represents the average daily disease score±standard error of the mean (SEM). The results are representative of three consecutive experiments that gave similar results.

[5] = system: chronic MOG35-55 induced EAE in C57B1/6 mice; assay: Chronic EAE in C57B1/6 mice, therapeutic treatment regimen; format: in vivo
Excerpt: as §4, §2
With reference to FIG. 10, the non-peptide prokineticin receptor 1 and 2 antagonist PC-7 was administered intraperitoneally to 8-12 week old female C57B1/6 mice in which chronic EAE had been induced by immunization with MOG35-55 (100 μg/mouse) and PTX (400 ng/mouse). The PC-7 was given at a dose of 500 μg /kg (n=10). As a control, an equal amount of saline solution was injected (vehicle) (n=10). The treatments began on the onset of the first symptoms of the disease (day 12). Ten mice per group were used. The graph represents the average daily disease score±standard error of the mean (SEM). The results are representative of two consecutive experiments that gave similar results.

[6] = system: DLN cells; assay: T-cell response in draining lymph node cells of mice with relapsing-remitting EAE, restimulated in vitro with PLP139-151; format: cell-based; conditions: restimulated with PLP139-151, vs vehicle
Protocol: With reference to FIG. 8, 8-12 week old female SJL mice in which EAE had been induced by immunization with PLP139-151 in CFA were preventively treated (day 0) with PC-7 at a dose of 500 μg/kg per day or with vehicle as described in the previous experiments. The draining lymph nodes (DLN, inguinal and axillary) were obtained 7 days after immunization with PLP139-151. To assay proliferation, the DLN cells were restimulated in vitro with the antigen PLP139-151 at different concentrations, with Concanavalin A (2 μg /ml), or with the medium.
(§5) After 48 hours of incubation with 5% Co2 at 37° C., the cultures were loaded for 18 hours with 0.5 μCi 3H-thymidine per well.
To assay cytokine production, DLN cells were restimulated in vitro with the antigen PLP139-151 at different concentrations or with the medium. Data are expressed as mean cpm±SEM, ng/ml±SEM, or pg/ml±SEM.

[7] = system: DLN cells; assay: T-cell response in draining lymph node cells of mice with chronic EAE, restimulated in vitro with MOG35-55; format: cell-based; conditions: restimulated with MOG35-55, vs vehicle
Protocol: With reference to FIG. 11, 8-12 week old female C57B1/6 mice in which chronic EAE had been induced by immunization with MOG35-55 were preventively treated (day 0) with PC-7 at a dose of 500 μg/kg per day or with a vehicle as described in the previous experiments. The draining lymph nodes (DLN, inguinal and axillary) were obtained 10 days after immunization with MOG35-55. To assay proliferation, the DLN cells were restimulated in vitro with MOG35-55 at different concentrations, with Concanavalin A (2 μg/ml), or with the medium. Data are expressed as mean cpm±SEM, ng/ml±SEM, or pg/ml±SEM.
as §5
To assay cytokine production, DLN cells were restimulated in vitro with MOG35-55 at different concentrations or with the medium.

[8] = SJL mice, 500 μg/kg i.p., preventive, Table 1
[9] = splenocytes, restimulated with PLP139-151, ELISA, vs vehicle
[10] = SJL mice, 500 μg/kg i.p., preventive, Table 2
[11] = SJL mice, 500 μg/kg i.p. from first symptoms (Day 11), therapeutic
[12] = C57B1/6 mice, 500 μg/kg i.p., preventive
[13] = C57B1/6 mice, 500 μg/kg i.p. from first symptoms (day 12), therapeutic
[14] = DLN cells, relapsing-remitting EAE

Structure (SMILES): CCc1ccc(Cn2c(=O)nc(NCCNC(=N)N)n(Cc3ccc(OC)cc3)c2=O)cc1 [PC1]
- Cumulative disease score [1, 8]: 24.8 ± 9.0 *
- Onset of disease (Day) [1, 8]: 12.4 ± 1.0 * Day
- Peak of disease Severity ([1]; SJL mice, 500 μg/kg i.p., preventive, score scale 0 to 5, Table 1): 1.7 ± 0.4 *
- Incidence (%) ([1]; SJL mice, 500 μg/kg intraperitoneally from induction of EAE (preventive), Table 1): 70% (7/10)
- severity of the disease (in words) ([1]; relapsing-remitting EAE): reduction in the severity of the disease
- onset of the disease (in words) ([1]; relapsing-remitting EAE, treated from the time of induction of EAE): delay in the onset of the disease
- peptide-specific T cells proliferation ([2]; splenocytes 35 days after immunization, mice treated 500 μg/kg per day preventively, restimulated with PLP139-151, vs vehicle): reduction
- production of IFN-gamma [2, 9]: reduction
- production of IL-4 [2, 9]: increasing
- production of TNF [2, 9]: reduction

Structure (SMILES): COc1ccc(Cn2c(NCCNC(=N)N)nc(=O)n(Cc3ccc(F)cc3)c2=O)cc1 [PC7]
- Cumulative disease score [1, 10]: 21.2 ± 5.1 *
- Onset of disease (Day) [1, 10]: 11.4 ± 0.1 * Day
- Peak in disease Severity [1, 10]: 2.2 ± 0.3 *
- Incidence (%) ([1]; SJL mice, 500 μg/kg i.p. from induction of EAE (preventive), Table 2): 90% (9/10)
- severity of the disease (in words) ([1]; relapsing-remitting EAE): significantly reduces the severity of the disease
- Cumulative disease score [3, 11]: 42.3 ± 7.5
- Incidence (%) [3, 11]: 100% (10/10)
- Peak in disease Severity [3, 11]: 2.6 ± 0.3
- severity of the disease (in words) ([3]; relapsing-remitting EAE, therapeutic treatment, 500 μg/kg): significantly reduces the severity of the disease
- Cumulative disease score [4, 12]: 41.1 ± 11.8
- Onset of disease [4, 12]: 16.8 ± 1.7 days
- Peak in disease Severity [4, 12]: 2.5 ± 0.5
- Incidence (%) ([4]; C57B1/6 mice, MOG35-55 and PTX, 500 μg/kg i.p. from induction of EAE (preventive)): 90% (9/10)
- severity of the disease (in words) ([4]; chronic EAE, preventive treatment): significant reduction in the severity of the disease
- Cumulative disease score [5, 13]: 50.9 ± 11.8
- Incidence (%) [5, 13]: 100% (10/10)
- Peak in disease Severity [5, 13]: 3.3 ± 0.3
- severity of the disease (in words) ([5]; chronic EAE, therapeutic treatment, 500 μg/Kg): significant reduction in the severity of the disease
- proliferation of lymph node cells ([6]; DLN cells 7 days after immunization, mice treated 500 μg/kg per day preventively): reduced proliferation
- levels of IL-17A [6, 14]: slight reduction
- levels of interleukin IL-6 [6, 14]: increase
- levels of interleukin IL-10 [6, 14]: increase
- production of IFN [6, 14]: significantly lower
- production of TNF [6, 14]: significantly lower
- peptide-specific T cells proliferation ([7]; DLN cells 10 days after immunization, mice treated 500 μg/kg per day preventively): reduction
- production of IFN-gamma ([7]; DLN cells, chronic EAE): reduction
- production of IL-10 ([7]; DLN cells, chronic EAE): increasing
- production of IL-17 ([7]; DLN cells, chronic EAE): reduction
- production of TNF ([7]; DLN cells, chronic EAE): reduction
